# Experimental data taken from patent US5446152A, “Heterocyclic compounds active in gastro-intestinal pathologies” (priority 1993, dated 1995).
# Structures can show the parent of a compound that is named as a salt. Where two headings read alike, the source gives them in different places.
# Tests used:
# [1] = system: intestinal transit; assay: Intestinal transit of an opaque meal in the mouse (prokinetic action); assay type: in vivo, Swiss albino mice; conditions: for % of intestine (from pylorus to anus) travelled by the opaque meal / change in vivo at 0.0098 mg/kg: 9.8 μg/Kg p.o.; for % of intestine (from pylorus to anus) travelled by the opaque meal / change in vivo at 0.0098 mg/kg / ED50: 15' before the opaque meal; for change in vivo at 0.0098 mg/kg: Mus musculus, read-out: variation in % with respect to the controls; for change in vivo at 0.0098 mg/kg / ED50: po; for change in vivo at 0.0098 mg/kg / Variation % with respect to the controls: * = p<0.05; for Variation % with respect to the controls / ED50: mouse; for Variation % with respect to the controls: dose five times greater than ED50; for ED50: read-out: DE50 (the source's name)
# Procedure: (§1) In tables 5, 6, 7 and 8 the significance was determined by means of Student's test on absolute values with respect to the relative controls using 10 animals per group in tests 5, 6 and 7.
# The prokinetic action was evaluated in vivo on Swiss albino mice determining the influence of the products on the intestinal transit of an opaque meal, according to the method described by Macht D. I. and Barba-Gose J. in J. Amer. Pharm. Ass. 20, 558, 1931 and later by Witkin L. B. et al. in J. Pharmacol. Exp. Ther. […]
# The method involved the administration of an opaque meal to the mice after a 24 hour fast, through gastric probe, 15 minutes after the administration of the product.
# After sacrificing the animals 20 minutes after the administration of the opaque meal, the percentage of the length of the intestine travelled by the opaque meal was calculated.
# [2] = system: rabbit jejunum; assay: Spontaneous peristaltic activity on rabbit jejunum; conditions: for Emax / EC50 / EC (maximum effect): Oryctolagus cuniculus; for Emax: read-out: maximum effect % (max. increase of extent of the contractions); for EC50: read-out: CE50 (concentration able to produce 50% of the maximum effect); for EC (maximum effect): read-out: concentration required to obtain the maximum effect
# Procedure: (§2) In vitro tests were carried out to evaluate the effect of the compounds of formula I and some of their pharmacologically acceptable salts on physiological peristalsis, on the action of the histamine, serotonine and acetylcholine.
# The action on physiological peristalsis was evaluated on an isolated rabbit jejunum preparation, according to the method reported by Magnus J. in Pfluegers Arch. Gen. Physiol.
# The rabbit jejunum was used to evaluate the extent of the spontaneous peristaltic contractions in the presence and in the absence of the derivatives being studied.
# [3] = system: behaviour; assay: Irwin's test (effects as regards behaviour); assay type: in vivo; conditions: rats, 20 mg/Kg i.p.
# Text: Finally, preliminary studies on the effects as regards behaviour have been performed by means of Irwin's test, according to the method reported by Irwin S. in Gordon Res. Conf. on Medicinal Chem. 1959, 133, 1959, modified in that rats were used instead of mice.
# [4] = system: serotonine on the fornix of the rat stomach; assay: Influence on the serotonine activity on the fornix of the rat stomach; set-up: species or system Wistar rat
# Procedure: as §2
# The effect on the serotonine was evaluated on the fornix of the stomach of a rat according to the method of Vane J. R. in Br. J. Pharmacol. Cheroother. 12, 344, 1957.
# The action on the serotonine was evaluated on the fornix of the stomach of rat, also taken from Wistar rat sacrificed after 24 hours fasting, following the technique reported by Vane J. R. in Br. J. Pharmacol. Chemoter. 12, 344, 1957, as previously described.
# [5] = system: cholinesterase; conditions: cited from earlier work
# [6] = Study of acute toxicity (LD50); assay type: in vivo; conditions: rat, in vivo, iv; Sprague-Dawley rats of both sexes, observation period of 14 days
# Procedure: (§3) The acute toxicity (LD50)of the derivatives described in this invention was evaluated according to the method reported by Lietchfield J. T. and Wilcoxon F. in J. Pharmacol. Exp. Ther. 96, 99, 1949, on Sprague-Dawley rats of both sexes, over an observation period of 14 days from the day of treatment.
# [7] = system: histamine on guinea-pig ileum; assay: Influence on the activity of histamine on guinea-pig ileum; conditions: isolated guinea-pig ileum
# Procedure: In vitro tests were carried out to evaluate the effect of the compounds of formula I and some of their pharmacologically acceptable salts on physiological peristalsis, on the action of the histamine, serotonine and acetylcholine. The effect on the histamine was evaluated on a preparation of guinea-pig ileum according to the method described by the above-mentioned authors. […] The rabbit jejunum was used to evaluate the extent of the spontaneous peristaltic contractions in the presence and in the absence of the derivatives being studied. On the guinea-pig ileum the cumulative dose-response curve to histamine were recorded in the presence of increasing concentrations of the products being examined.
# [8] = system: emesis induced with cisplatin; assay: Test of vomit from cisplatin in the pigeon (antiemetic activity); assay type: in vivo; conditions: one hour before cisplatin 7.5 mg/kg; for Acts of vomit (average/anim.) / Animals that vomit % / Latency of 1st act of vomit: * = p<0.05
# Procedure: as §1
# Finally the antiemetic activity was evaluated in the pigeon after induction of emesis with cisplatin, according to the method of Preziosi P. et al. in Eur. J. Pharmacol. 221, 343, 1992.
# [9] = system: acetylcholine on the rat ascending colon; assay: Influence on the acetylcholine activity on the rat ascending colon; set-up: species or system Wistar rat; conditions: isolated rat ascending colon
# Procedure: as §2
# Finally the effect on the acetylcholine was evaluated on the ascending colon of a rat, according to the method of Gaddum J. H. and Horton E. W. reported in Br. J. Pharmacol. Chemother. 14, 117, 1959.
# The effect of the products on the contracturing action of the acetylcholine was studied on the isolated ascending colon of rat, taken from Wistar rat sacrificed after 24 hours fasting, washed with De Jalon fluid at 27° C. and perfused with the same oxygenated fluid (95% oxygen and 5% carbon dioxide) at the temperature of 27° C. In this case too the cumulative dose-response curves were recorded in the presence of increasing concentrations of the products being studied.
# [10] = system: gastric dumping; assay: Test of gastric dumping in the rat; assay type: in vivo; conditions: for Increase % of the gastric dumping with respect to the controls: 30' before, measured 20' after the coloured meal, * = p<0.05
# Procedure: as §1
# Within the gastro-duodenal tract, the prokinetic activity was evaluated by means of the test of gastric dumping in the rat, according to the method reported by Scarpignato C. in J. Pharmacol. 14, 261, 1983.
# [11] = system: gastro-intestinal motility; conditions: cited from earlier work
# [12] = system: dopaminergic receptors D2; conditions: cited from earlier work
# [13] = system: Sprague-Dawley rats; assay: Study of acute toxicity (LD50); assay type: in vivo; conditions: Sprague-Dawley rats of both sexes, i.v., observation period of 14 days; 20160 min
# Procedure: as §3
# [14] = isolated rabbit jejunum, spontaneous peristaltic contractions
structure (smiles),measurement,setting,value
"CCN(CC)CCCN1CNc2ccc(Cl)cc2C1=O [Example 3, 6-Chloro-3-3-(diethylamino)propyl-2,3-dihydro-4(1H)-quinazolinone oxalate]",% of intestine (from pylorus to anus) travelled by the opaque meal,[1],45.0%
same,change in vivo at 0.0098 mg/kg,[1],11.1%
same,Variation % with respect to the controls,[1],6.4%
same,Emax,[2]; [14],25%
same,EC50,[2]; isolated rabbit jejunum,10 nM
same,EC (maximum effect),[2]; isolated rabbit jejunum,1 µM
same,variations with respect to the controls in behavioural parameters (Irwin's test),[3],no significant variations with respect to the controls
same,effect on the serotonine activity,[4],act as competitive antagonists
"COc1cc(N)c(Cl)cc1C(=O)NC1CCN(CCCOc2ccc(F)cc2)CC1OC (centres unmarked) [cisapride, reference compound]",ED50,[1],0.019 mg/kg
same,cholinesterase inhibition,[5],practically no
same,Emax,[2],40%
same,EC50,[2]; isolated rabbit jejunum,20 nM
same,LD50 at 336 h,[6],35 mg/kg
"CCN(CC)CCN1CNc2ccc(Cl)cc2C1=O.O=C(O)C(=O)O [Example 1, 6-Chloro-3-[2-(diethylamino)ethyl]-2,3-dihydro-4(1H)-quinazolinone oxalate]",% of intestine (from pylorus to anus) travelled by the opaque meal,[1],52.0%
same,change in vivo at 0.0098 mg/kg,[1],34.4%
same,Variation % with respect to the controls,[1],33.7%
same,ED50,[1],0.0098 mg/kg
same,active concentration (histamine),[7],100 µM
same,Emax,[2]; [14],75%
same,EC50,[2]; isolated rabbit jejunum,3000 nM
same,EC (maximum effect),[2]; isolated rabbit jejunum,10 µM
same,effect on the spontaneous peristalsis in comparison with cisapride,"[2]; rabbit jejunum, examples 1 and 2 at greater concentrations than the reference, example 6 at identical concentrations",greater than that of cisapride
same,LD50 at 336 h,[6],100 mg/kg
same,Variation % of the time of latency with respect to the controls,[8]; 50.0 μg/kg i.m.,-8.3%
same,Acts of vomit (average/anim.),[8]; 50.0 μg/kg i.m.,5.0 average/anim.
same,Animals that vomit %,[8]; 50.0 μg/kg i.m.,100.0%
same,Latency of 1st act of vomit,[8]; 50.0 μg/kg i.m.,77.5 min
same,Variation % of the time of latency with respect to the controls,[8]; 100.0 μg/kg i.m.,+14.7%
same,Acts of vomit (average/anim.),[8]; 100.0 μg/kg i.m.,4.0 average/anim.
same,Animals that vomit %,[8]; 100.0 μg/kg i.m.,100.0%
same,Latency of 1st act of vomit,[8]; 100.0 μg/kg i.m.,97.0 min
same,active concentration (serotonine),[4],10 µM
same,effect on the serotonine activity,[4]; oxalate,increase the effect of the serotonine
same,active concentration (acetylcholine),[9],100 µM
same,Increase % of the gastric dumping with respect to the controls,[10]; 12.5 μg/kg,27.6%
same,Increase % of the gastric dumping with respect to the controls,[10]; 50.0 μg/kg,81.0%
same,Increase % of the gastric dumping with respect to the controls,[10]; 100.0 μg/kg,40.0%
same,Increase % of the gastric dumping with respect to the controls,[10]; 200.0 μg/kg,45.7%
same,Increase % of the gastric dumping with respect to the controls,[10]; 400.0 μg/kg,34.0%
same,level of activity on the gastric dumping,"[10]; rat, text statement on table 7",high level of activity on the gastric dumping
CCN1CC(NC(=O)c2cc(Cl)c(N)cc2OC)CN1CC [dazopride],gastro-intestinal motility / prokinetic activity,[11],having prokinetic activity
same,activity on the dopaminergic receptors D2,[12],a fair amount of activity on the dopaminergic receptors D2
CCN(CC)CCNC(=O)c1cc(Cl)c(N)cc1OC [metoclopramide],gastro-intestinal motility / prokinetic activity,[11],stimulates the motility of the upper gastro-intestinal tract
same,activity on the dopaminergic receptors D2,[12],both central and peripheral antagonistic activity on the dopaminergic receptors D2
"CCN(CC)CCN1CN(C)c2ccc(Cl)cc2C1=O [Example 11, 6-Chloro-3-[2-(diethylamino)ethyl]-2,3-dihydro-1-methyl-4(1H)-quinazolinonecitrate]",LD50,[13],80 mg/Kg/i.v.
COc1cc(N)c(Cl)cc1C(=O)NC1CCN(Cc2ccccc2)CC1 [clebopride],gastro-intestinal motility / prokinetic activity,[11],having prokinetic activity
same,activity on the dopaminergic receptors D2,[12],a fair amount of activity on the dopaminergic receptors D2
